In patent US20230218754A1, “PHARMACEUTICAL COMPOSITIONS WITH ANTI-RANKL ANTIBODIES, CALCIUM AND VITAMIN D” (priority 2016, published 2023):
Where “and” joins values, the source holds several entries; their conditions need not be identical. Identical values can stand only once.

Legend:
[1] = background statement; cited from earlier work
[2] = serum calcium level in patients under denosumab plus calcium and vitamin D3; assay type: in vivo, human
Description: The following data from an oncological patient (prostate cancer) in Table 5 show the serum levels of calcium and vitamin D3 in administration of 120 mg of denosumab (anti-RANKL antibody, Xgeva) every 4 weeks and the oral administration of 500 mg of calcium daily and 1000 IU of vitamin D3 daily.
In Table 5, the patient received 120 mg of denosumab every 4 weeks and 500 mg of calcium and 1000 IU of vitamin D3:
The following data from osteoporosis patients in Table 6 show the serum values of calcium and vitamin D3 in administration of 60 mg of anti-RANKL antibody/denosumab (Prolia) every 6 months and the oral administration of 500 mg of calcium daily and 1000 IU of vitamin D3 daily.
In Table 6, the osteoporosis patients received 60 mg of denosumab every 6 months, 500 mg of calcium daily, and 1000 IU of vitamin D3, also daily: […]

[3] = chair-rising test (standing up test) in osteoporosis patients; assay type: in vivo, human; details: 60 mg denosumab (Prolia) + 500 mg calcium + 1000 IE vitamin D3
Description: The so-called “chair-rising test” (standing up test) was carried out in 3 patients.
The chair-rising test (standing up test) allows a determination to made concerning the strength and falling risk of the test person. The test person is asked to stand up and sit back down five times as quickly as possible with his/her arms folded over his/her chest and without using them from a chair of ordinary height (approximately 46 cm seat height). If the patient is not capable of doing this, the number of successful completions are counted rather than the seconds. If the patient takes longer than 10-11 seconds, it must be assumed that he/she is at increased risk of falling.
The improvement is given in the right column in %.

[4] = 25(OH) vitamin D3 serum concentration under vitamin D maintenance dose in patients with vitamin D deficiency; assay type: in vivo, human
Text: Vitamin D deficiency is a common diagnosis in osteology practice. […] The maintenance dose was 1000 IU of vitamin D daily.

[5] = as above; assay type: in vivo, human; details: maintenance dose of 400 IU of vitamin D daily

Molecule: C=C1/C(=C\C=C2/CCC[C@]3(C)[C@@H]([C@H](C)CCCC(C)(C)O)CC[C@@H]23)C[C@@H](O)C[C@@H]1O [calcitriol, 1α,25-dihydroxycholecalciferol]
- time to maximum serum concentration after intake [1]: three to six

Molecule: denosumab: anti-RANKL antibody approved as a medicinal preparation; marketed by Amgen as Prolia (60 mg) and Xgeva (120 mg)
- Calcium (serum) ([2]; oncological patient (prostate cancer), 120 mg denosumab (Xgeva) every 4 weeks + 500 mg calcium and 1000 IU vitamin D3 daily, after 13 weeks): 2.11 mmol/L
- Calcium (serum) ([2]; oncological patient (prostate cancer), 120 mg denosumab (Xgeva) every 4 weeks + 500 mg calcium and 1000 IU vitamin D3 daily, after 26 weeks): 2.12 mmol/L
- Calcium (serum) ([2]; osteoporosis patients, 60 mg denosumab (Prolia) every 6 months + 500 mg calcium and 1000 IU vitamin D3 daily, after 13 weeks): 2.34 mmol/L and 2.32 mmol/L and 2.3 mmol/L and 2.37 mmol/L
- Calcium (serum) ([2]; osteoporosis patients, 60 mg denosumab (Prolia) every 6 months + 500 mg calcium and 1000 IU vitamin D3 daily, after 26 weeks): 2.32 mmol/L and 2.45 mmol/L
- Chair Rising time repeated 6 months later ([3]; osteoporosis patients, 6 months after beginning therapy): 8 s and 10 s
- reduction of the risk of falling ([3]; three osteoporosis patients, 6 months): 11-29%

Molecule: vitamin D
- 25(OH) vitamin D3 serum concentration at maintenance dose of 1000 IU of vitamin D daily ([4]; individual female patients with initial vitamin D deficiency, 1000 IU vitamin D daily): 29.2 ng/mL and 30.4 ng/mL and 28.8 ng/mL and 23.7 ng/mL and 23.2 ng/mL and 30.5 ng/mL and 25.5 ng/mL and 23.4 ng/mL
- maintaining the vitamin D level in the normal range ([4]; maintenance dose of 1000 IU of vitamin D daily): suitable
- maintaining the vitamin D concentration at the standard level [5]: not sufficient
